Earlier results, collected in patent US20230067402A1, “IS[…] T[…] ANALOGS THEREOF” (Biomind Labs Inc, priority 2021, published 2023).

Conditions: intramuscular administration

Structure (SMILES): CN(C)CCc1c[nH]c2ccccc12 [DMT, N,N-dimethyltryptamine]
- time to peak concentration in the blood: 10 to 15 min
- blood level after one hour (after one hour): undetectable levels
